# Literature values in US20050039221A1, “Phenotypic effects of ubiquinone deficiencies and methods of screening thereof” (priority 2001, published 2005).
# Tests used:
# [1] = rodents
# complex I = details: synthetic DMQ2
# complex II = details: synthetic DMQ2
SMILES,"Uptake of dietary UQ, share of the initially ingested ubiquinone [1]",Function as co-factor for electron transport from complex I (complex I),Function as co-factor for electron transport from complex II (complex II)
"COC1=C(OC)C(=O)C(C/C=C(\C)CC/C=C(\C)CC/C=C(\C)CC/C=C(\C)CC/C=C(\C)CC/C=C(\C)CC/C=C(\C)CC/C=C(\C)CC/C=C(\C)CCC=C(C)C)=C(C)C1=O [UQ, Ubiquinone]",2-3%,,
COC1=CC(=O)C(C)=C(C/C=C(\C)CCC=C(C)C)C1=O [DMQ2],,can function as a co-factor,more poorly
